# In US8809298B2, “Methods, compositions, unit dosage forms, and kits testing for pharmacologic stress testing with reduced side effects” (Adenobio N.V., priority 2006, dated 2014):
# Values joined by “and” are separate entries in the source; they are usually repeats but may differ in a detail not shown here. Identical values can stand only once.
# Key:
# [1] = tested on: patients suffering from ischemic heart disease; conditions: human, in vivo, iv
# Excerpt: (§1) Primary efficacy end-points were peak and mean diastolic flow velocities (measured as reflecting coronary blood flow values). The secondary end-point was patient tolerance to the procedure.
# (§2) VAS scores provide a measure of patient self-assessment of pain intensity/discomfort.
# [2] = tested on: patients suffering from ischemic heart disease; experiment: Transthoracic doppler echocardiography (TTDE): blood flow velocity in the left anterior descending coronary artery (LAD); type: in vivo, human; conditions: for MV-DIP Min / PV-DIP Min: at rest, dipyridamole alone arm; for Mean velocity ADE Max / Peak velocity ADE Max: adenosine alone 140 μg/kg/min IV, under stress conditions; for Mean velocity ADE Min / Peak velocity ADE Min: at rest (basal conditions) before adenosine 140 μg/kg/min
# Protocol: In the combined administration, each of the two agents was administered at a dosage lower than its clinically preferred dosage when used as a single agent for myocardial perfusion imaging. Effects were measured using noninvasive transthoracic doppler echocardiography (TTDE).
# The protocol was designed as follows.
# Forty (40) consecutive patients suffering from ischemic heart disease were enrolled. Each patient served as their own control.
# […] These total doses are between about 4-6% of the lowest single-agent total dose of dipyridamole (i.e., 0.56 mg/kg, infused over a total of 4 minutes).
# This dose is half the standard single-agent dosage rate of 140 μg/kg/min.
# [3] = cited from earlier work
# [4] = tested on: patients suffering from ischemic heart disease; experiment: Patient tolerance in Example 1: adverse events, VAS severity, EKG, vital signs; conditions: for Mean global visual analogue scale (VAS) score for the three main adverse events: total score of 30, ADE 140 μg/kg/min, SC adenosine 70 μg/kg/min
# Excerpt: as §1, §2
# coronary patients [5] = experiment: Safety of the procedure in the Phase II SPECT study: adverse events, visual scale, ST changes on EKG; type: in vivo, human
# Protocol: Given the similar adverse effect profile, the 40 μg/kg dipyridamole dose is currently preferred, since it tends to show greater efficacy.
# Table 13 gives adverse event severity cumulated scores, evaluated on a visual scale (going from 0 to 10), for the first 27 patients.
# At this point in time, no difference in the occurrence of A2 receptor-related side effects, or severity of symptoms, has become clearly apparent as between the combination stressor and Adenoscan. In contrast, the reduction in the occurrence (−43%) and severity (−69%) of chest pain (an A1 receptor-related adverse effect) has already become manifest in the first 27 patients. […] The difference in ST-variation for each patient alone is not significant, but the total difference has achieved significance, with a clear trend in favor of the combination. In the table below (Table 14) ST-changes/baseline are expressed in millimeters.
# coronary patients [6] = experiment: Phase II SPECT imaging study: stress scores, 17-segment model; type: in vivo, human; set-up: key: sum of abnormal segment scores, each 0 = normal to 4 = no uptake; conditions: adenosine alone 140 μg/kg/min; Series I, individual patients 1-10; listed as Adenoscan
# Protocol: The study, which is ongoing, is a mono-center, single-blind, 2-arm, cross-over trial.
# Only those patients in whom an ischemic zone was detected were declared eligible for the second test, and were enrolled in the study if other inclusion criteria were satisfied.
# SPECT images were acquired as per the standard approach performed the preceding week.
# Randomization of SPECT images, and their analysis by two blinded readers, took place every 10 patients. Anonymous and randomized images were assessed using the standard 17-segment model and the semi-quantitative visual score method on a 5-point scale (from 0 to 4).
# The “stress score” is the image of ischemia in one or more of the 17 cardiac segments, as scored from 0 to 4 by the blinded reader using the following scale: normal perfusion=0, mild reduction in counts=1, moderate reduction in counts=2, severe reduction=3, absence of uptake=4). Normally, a zone of ischemia is certain when a score ≧4 is noted. A stress score sums the scores of all abnormal segments.
# “Stress score A” is the image score difference between stress conditions between adenosine alone and rest conditions. […] “Delta score” is the difference between “Stress score A” and “Stress score B.” It must not be >2 […]
# [7] = dipyridamole alone, bolus 28 μg/kg, individual patient
# [8] = dipyridamole alone, bolus 35 μg/kg, individual patients
# [9] = dipyridamole alone, bolus 40 μg/kg, individual patients
# [10] = adenosine alone 140 μg/kg/min, 40 patients
# [11] = Adenoscan alone 140 μg/kg/min, n=27
# [12] = visual scale 0 to 10, cumulated over first 27 patients
# [13] = mean of 5 patients (DIP4 group)
# [14] = mean of 5 patients (DIP6 group)
# [15] = mean of 30 patients (DIP5 group)
# [16] = at rest before adenosine infusion, individual patients (second control experiment)
# [17] = at rest before first adenosine infusion, individual patients, listed as ADE1
# [18] = at rest before first adenosine infusion, mean of 5 patients
# [19] = at rest before second adenosine infusion, individual patients, listed as ADE2
# [20] = at rest before second adenosine infusion, mean of 5 patients
# [21] = first adenosine infusion 140 μg/kg/min, stress, mean of 5 patients
# [22] = first vs second adenosine infusion 140 μg/kg/min, 5 patients
# [23] = second adenosine infusion 140 μg/kg/min after 5 minute stabilization, stress, individual patients, listed as ADE2
# [24] = second adenosine infusion 140 μg/kg/min, stress, mean of 5 patients
# [25] = three minute adenosine infusion 140 μg/kg/min, stress, individual patients (second control experiment)
smiles,measurement,setting,value
"OCCN(CCO)c1nc(N2CCCCC2)c2nc(N(CCO)CCO)nc(N3CCCCC3)c2n1 [DIP, dipyridamole]",Symptoms during a follow-up of 10 minutes,[1],No symptoms
same,MV-DIP Min,"[2]; 28 μg/kg, individual patient",19 cm/s
same,PV-DIP Min,"[2]; 28 μg/kg, individual patient",23 cm/sec
same,MV-DIP Min,"[2]; 35 μg/kg, individual patients",18 cm/s and 22 cm/s
same,PV-DIP Min,"[2]; 35 μg/kg, individual patients",21 cm/sec and 30 cm/sec
same,MV-DIP Min,"[2]; 40 μg/kg, individual patients",23 cm/s and 24 cm/s
same,PV-DIP Min,"[2]; 40 μg/kg, individual patients",33 cm/sec and 34 cm/sec
same,Effect on peak and mean diastolic velocities,"[2]; dipyridamole alone, IV bolus 28 to 40 μg/kg, 5 patients",did not modify
same,MV-DIP Max,[2]; [7],21 cm/s
same,PV-DIP Max,[2]; [7],26 cm/sec
same,MV-DIP Max,[2]; [8],20 cm/s and 28 cm/s
same,PV-DIP Max,[2]; [8],23 cm/sec and 40 cm/sec
same,MV-DIP Max,[2]; [9],25 cm/s and 29 cm/s
same,PV-DIP Max,[2]; [9],35 cm/sec and 40 cm/sec
same,Stability in solvents,"[3]; pH>4, long term",unstable in the long term
same,Solubility in saline,[3]; saline,poorly soluble
"Nc1ncnc2c1ncn2[C@@H]1O[C@H](CO)[C@@H](O)[C@H]1O [ADE, adenosine]",Mean global visual analogue scale (VAS) score for the three main adverse events,"[4]; Group DIP4 (dipyridamole 35 μg/kg in SC), n=5",5.4
same,Mean global visual analogue scale (VAS) score for the three main adverse events,"[4]; Group DIP5 (dipyridamole 28 μg/kg in SC), n=30",5.95
same,Mean global visual analogue scale (VAS) score for the three main adverse events,"[4]; Group DIP6 (dipyridamole 23 μg/kg in SC), n=5",8.2
same,Symptoms under ADE,"[4]; adenosine 140 μg/kg/min, individual patients (second control experiment)",None (2×) and Dyspnea and Flushing (2×)
same,Symptoms under ADE: score,"[4]; adenosine 140 μg/kg/min, score out of 10, individual patients",5/10 and 8/10 and 6/10
same,"Chest pain: # patients reporting events, ADE",[4]; [10],9
same,"Chest pain: frequency, ADE",[4]; [10],22.5%
same,"Dyspnea: # patients reporting events, ADE",[4]; [10],20
same,"Dyspnea: frequency, ADE",[4]; [10],50%
same,"Flushing: # patients reporting events, ADE",[4]; [10],21
same,"Flushing: frequency, ADE",[4]; [10],52.5%
same,"Chest pain: # patients reporting event, ADE",coronary patients [5]; [11],14
same,"Dyspnea: # patients reporting event, ADE",coronary patients [5]; [11],11
same,"Flushing: # patients reporting event, ADE",coronary patients [5]; [11],14
same,"ST-changes/baseline, Adenosine 140 μg/kg/mn","coronary patients [5]; EKG, individual patients with ST variations (6 of 27)",0.5 millimeters and 1 millimeters (3×) and 0.8 millimeters and 1.2 millimeters
same,"ST-changes/baseline, Adenosine 140 μg/kg/mn, Total","coronary patients [5]; EKG, total of 6 patients",5.5 millimeters
same,Chest pain: adverse event severity cumulated score,coronary patients [5]; [12],60
same,Dyspnea: adverse event severity cumulated score,coronary patients [5]; [12],40
same,Flushing: adverse event severity cumulated score,coronary patients [5]; [12],43.5
same,Stress score A (Adenoscan),coronary patients [6],5 (5×) and 4 (2×) and 14 and 13 and 7
same,Differences in velocity measurements between first and second adenosine infusions,"[2]; 140 μg/kg/min twice, 5 patients, P>0.05",No statistically significant differences
same,Mean velocity ADE Max,[2]; (DIP5 group),61.4 cm/s
same,Mean velocity ADE Max,"[2]; cumulated, all 40 patients",63.6 cm/s
same,Peak velocity ADE Max,"[2]; cumulated, all 40 patients",85.3 cm/sec
same,Mean velocity ADE Max,[2]; [13],60.4 cm/s
same,Peak velocity ADE Max,[2]; [13],80 cm/sec
same,Mean velocity ADE Max,[2]; [14],80.2 cm/s
same,Peak velocity ADE Max,[2]; [14],107 cm/sec
same,Peak velocity ADE Max,[2]; [15],82.6 cm/sec
same,Mean velocity ADE Min,"[2]; cumulated, all 40 patients",23.7 cm/s
same,Peak velocity ADE Min,"[2]; cumulated, all 40 patients",31.2 cm/sec
same,Mean velocity ADE Min,[2]; [13],22.2 cm/s
same,Peak velocity ADE Min,[2]; [13],28 cm/sec
same,Mean velocity ADE Min,[2]; [14],28.2 cm/s
same,Peak velocity ADE Min,[2]; [14],37.6 cm/sec
same,Mean velocity ADE Min,[2]; [15],23.1 cm/s
same,Peak velocity ADE Min,[2]; [15],30.6 cm/sec
same,MV-ADE Min,[2]; [16],21 cm/sec and 23 cm/sec (2×) and 25 cm/sec and 20 cm/sec
same,PV-ADE Min,[2]; [16],25 cm/sec and 33 cm/sec (2×) and 27 cm/sec and 32 cm/sec
same,MV-ADE1 Min,[2]; [17],25 cm/s and 17 cm/s and 22 cm/s and 23 cm/s and 20 cm/s
same,PV-ADE1 Min,[2]; [17],34 cm/sec and 23 cm/sec and 30 cm/sec (2×) and 28 cm/sec
same,"MV-ADE1 Min, Mean",[2]; [18],21.4 cm/s
same,"PV-ADE1 Min, Mean",[2]; [18],29 cm/sec
same,MV-ADE2 Min,[2]; [19],23 cm/s and 16 cm/s and 22 cm/s and 21 cm/s and 20 cm/s
same,PV-ADE2 Min,[2]; [19],31 cm/sec and 22 cm/sec and 29 cm/sec and 26 cm/sec and 25 cm/sec
same,"MV-ADE2 Min, Mean",[2]; [20],20.4 cm/s
same,"PV-ADE2 Min, Mean",[2]; [20],26.6 cm/sec
same,PV-ADE1 Max,"[2]; first adenosine infusion 140 μg/kg/min, stress, individual patients (first control experiment), listed as ADE1",68 cm/sec and 65 cm/sec and 102 cm/sec and 73 cm/sec and 70 cm/sec
same,MV-ADE1 Max,"[2]; first adenosine infusion 140 μg/kg/min, stress, individual patients, listed as ADE1",49 cm/s and 48 cm/s and 75 cm/s and 53 cm/s and 50 cm/s
same,"MV-ADE1 Max, Mean",[2]; [21],55 cm/s
same,"PV-ADE1 Max, Mean",[2]; [21],75.6 cm/sec
same,Max velocity differential MV (ADE1 − ADE2),[2]; [22],(ADE2) = 2.4 cm/sec
same,Max velocity differential PV (ADE1 − ADE2),[2]; [22],(ADE2) = 4.8 cm/sec
same,MV-ADE2 Max,[2]; [23],45 cm/sec and 48 cm/sec (2×) and 75 cm/sec and 47 cm/sec
same,PV-ADE2 Max,[2]; [23],60 cm/sec and 66 cm/sec and 103 cm/sec and 63 cm/sec and 62 cm/sec
same,"MV-ADE2 Max, Mean",[2]; [24],52.6 cm/s
same,"PV-ADE2 Max, Mean",[2]; [24],70.8 cm/sec
same,MV-ADE Max,[2]; [25],71 cm/s and 67 cm/s and 86 cm/s and 64 cm/s and 61 cm/s
same,PV-ADE Max,[2]; [25],88 cm/sec and 92 cm/sec and 112 cm/sec and 84 cm/sec (2×)
